Target: core histone octamer (Homo sapiens, UniProt P0C0S8+P62805+P62807+P68431)
Assay: intrinsic histone fluorescence quenching titration
Type: binding

Work on CC[n+]1c(-c2ccccc2)c2cc(N)ccc2c2ccc(N)cc21 [EB, ethidium bromide] yielded a Kd of 7.7 ± 0.1 µM.

Source: paper PMC3958746 (FEBS Open Bio, 2014)
